{
  "source": "paper PMC12396409",
  "about": "“Screening and hit evaluation of a microbial metabolite library against the pathogenic Plasmodium falciparum and Toxoplasma gondii parasites” (International Journal for Parasitology: Drugs and Drug …, 2025)",
  "key": {"[1]": {"system": "P. falciparum 3D7 parasites", "assay": "P. falciparum growth inhibition assay, 1-cycle (72 h treatment), SYBR DNA staining (library screen at 2 μg/mL and dose-response)", "format": "cell-based, Plasmodium falciparum"}, "[2]": {"system": "P. falciparum 3D7 parasites", "assay": "P. falciparum growth inhibition assay, 2-cycle (120 h treatment), delayed-death screen and dose-response", "format": "cell-based, Plasmodium falciparum", "settings": "library screen at 2 μg/mL, 120 h, % growth"}, "[3]": {"system": "T. gondii RH strain (RH-Tub-eYFP) tachyzoites", "assay": "microbe, parasite or virus in culture", "format": "cell-based, Toxoplasma gondii", "settings": "library screen at 2 μg/mL, 72 h, % growth"}, "[4]": {"system": "Leishmania", "settings": "ref Filho et al., 2024; cited from earlier work"}},
  "note": "Where two headings read alike, the source gives them in different places.",
  "data": [
    {"substance": "Beauvericin", "values": [
      {"measurement": "IC50", "setting": "[1]; 3D7, 72 h treatment, mean ± S.D., n ≥ 3, read-out: IC50 (μM), P. falciparum", "result": "0.499 ± 0.029", "unit": "µM"},
      {"measurement": "IC50", "setting": "[1]; 72 h treatment, read-out: IC50, P. falciparum", "result": 0.5, "unit": "µM"},
      {"measurement": "Pf_72h_%Growth_Rep1", "setting": "[1]; library screen at 2 μg/mL, 72 h, % growth, replicate 1", "result": 7.31, "unit": "%"},
      {"measurement": "Pf_72h_%Growth_Rep2", "setting": "[1]; library screen at 2 μg/mL, 72 h, % growth, replicate 2", "result": 5.24, "unit": "%"},
      {"measurement": "Pf_120h_%Growth_Rep1", "setting": "[2]; replicate 1", "result": 4.73, "unit": "%"},
      {"measurement": "Pf_120h_%Growth_Rep2", "setting": "[2]; replicate 2", "result": 5.37, "unit": "%"},
      {"measurement": "Tg_72h_%Growth_Rep1", "setting": "[3]; replicate 1", "result": 86.72, "unit": "%"},
      {"measurement": "Tg_72h_%Growth_Rep2", "setting": "[3]; replicate 2", "result": 89.12, "unit": "%"},
      {"measurement": "reported activity in Leishmania", "setting": "[4]", "result": "around 1 μM"}
    ]}
  ]
}
